Experiments:
[1] = test system: Hepatoma cell line Huh-7; experiment: Anticancer effect of 2DG in nude mice subcutaneously transplanted with hepatoma cell line (Example 1); assay type: in vivo, nude mice (BALBc-nu/nu); settings: for tumor volume over time (FIG. 2): combination with sorafenib 5 mg/kg/day orally
Protocol: The Hepatoma cell line Huh-7 (obtained from Cell Resource Center for Biomedical Research, Cell Bank, Institute of Development, Aging and Cancer, National University Corporation Tohoku University) to be transplanted to the mice was cultured at 37° C. using a 5% CO2 incubator. Dulbecco's modified Eagle's medium (DMEM) containing 10% fetal bovine serum was used as the medium for culturing Huh-7 cells. Six-week-old nude mice (male, BALBc-nu/nu mice) were subcutaneously transplanted with 1×10^7 Huh-7 cells. In order to confirm the survival and growth of the transplanted cells, the measurement of tumor size was carried out using a pair of vernier calipers. […] (a) Control group: 200 μL of PBS was administered intraperitoneally every day. […] At the time points of 7 days, 14 days and 21 days after the start of administration, the average amount of meals taken per day was calculated from the amount of meals taken in the previous week. […] Further, 21 days after the start of administration, the tumors were observed, blood was collected from the mice in accordance with a conventional method, and the livers were removed from the mice. The serological profiles of the collected blood samples were measured using SPOTCHEM (trademark) EZ SP-4430 system (manufactured by Arkray, Inc.). In addition, the weight of the removed livers was measured.

[2] = Side effects in Example 3: body weight, meals, blood glucose, serological profiles, liver weight; assay type: in vivo, nude mice; settings: day 21
Protocol: Nude mice subcutaneously transplanted with Huh-7 cells, prepared in the same manner as in Example 1, were divided in the following six groups.
In each of the groups, the tumor volume and the body weight of the mice were measured in the same manner as in Example 1, and the average amount of meals taken per day was calculated.

[3] = test system: CD3 positive T cells; experiment: Immunostaining of liver tumor tissue with CD3 antibody (Example 10); assay type: in vivo, STAM mice (C57BL6/N); settings: 2DG 100 mg/kg/day i.p. every day; high dose 2DG-PLGA 200 μL of 100 mg/mL once a week
Protocol: Further, the immunostaining of the liver tumor tissue was carried out using a rabbit monoclonal CD3 antibody (manufactured by GeneTex, Inc.).

[4] = cited from earlier work
[5] = Side effects in Example 1: body weight, meals, blood glucose, serological profiles, liver weight; assay type: in vivo, nude mice (BALBc-nu/nu); settings: for Fasting blood glucose / Liver weight / Total cholesterol / ALT / Neutral fat: day 21
Protocol: Six-week-old nude mice (male, BALBc-nu/nu mice) were subcutaneously transplanted with 1×10^7 Huh-7 cells. In order to confirm the survival and growth of the transplanted cells, the measurement of tumor size was carried out using a pair of vernier calipers. At the time point when the tumors in the mice had reached a volume of from 100 to 150 mm^3, the mice were divided into the following six groups.
In each of the groups, the tumor volume and the body weight of the mice were measured every 3 days from the start of administration. At the time points of 7 days, 14 days and 21 days after the start of administration, the average amount of meals taken per day was calculated from the amount of meals taken in the previous week. […] Further, 21 days after the start of administration, the tumors were observed, blood was collected from the mice in accordance with a conventional method, and the livers were removed from the mice. The serological profiles of the collected blood samples were measured using SPOTCHEM (trademark) EZ SP-4430 system (manufactured by Arkray, Inc.). In addition, the weight of the removed livers was measured.

[6] = 2DG 100 mg/kg/day into jugular vein once a week
[7] = 2DG 100 mg/kg/day intraperitoneally every day
[8] = high dose 2DG 1,000 mg/kg/day i.p. (alone or with sorafenib 5 mg/kg/day orally)
[9] = low dose 2DG 100 mg/kg/day i.p. (alone or with sorafenib 5 mg/kg/day orally)
[10] = high dose 2DG 1,000 mg/kg/day i.p., day 14 after start

In the case of O=CC[C@@H](O)[C@H](O)[C@H](O)CO [2DG, 2-Deoxy-D-glucose], the “size of the tumors (appearance, FIG. 1)” value ([1]; 21 days after start, 2DG i.p. every day, sorafenib 5 mg/kg/day orally) is reported as “decreased the size of the tumors”, the “tumor volume over time (FIG. 2)” value ([1]; high dose 2DG 1,000 mg/kg/day i.p. every day) is reported as “significant decrease in the tumor volume in a dose-dependent manner” and the “tumor volume over time (FIG. 2)” value ([1]; low dose 2DG 100 mg/kg/day i.p. every day) is reported as “significant decrease in the tumor volume in a dose-dependent manner”. The ALT [2, 6] was 49 ± 20.9 U/L, the Fasting blood glucose [2, 6] was 73.8 ± 14.0 mg/dL and the Liver weight [2, 6] was 1.10 ± 0.19 g. The Neutral fat [2, 6] was 67.6 ± 28.5 mg/dL, the Total cholesterol [2, 6] was 115.4 ± 10.1 mg/dL and the ALT [2, 7] was 38.6 ± 23.5 U/L. The Fasting blood glucose [2, 7] was 83.2 ± 38.2 mg/dL, the Liver weight [2, 7] was 1.35 ± 0.19 g and the Total cholesterol [2, 7] was 113.8 ± 25.3 mg/dL. For the same molecule, the “infiltration of T cells into the interior of tumors (FIG. 29)” value [3] was “increased infiltration of T cells”, the side-effects ([4]; dose of from 63 to 88 mg/kg) was “severe side-effects such as gastrointestinal bleeding, long QT syndrome and hyperglycemia were observed” and the tolerated dose ([4]; phase 1 clinical trial, oral administration, combined with docetaxel) was ≤ 63 mg/kg. For the same molecule, the Fasting blood glucose [5, 8] was 77.2 ± 28.0 mg/dL, the Liver weight [5, 8] was 1.10 ± 0.1 g and the Total cholesterol [5, 8] was 110.8 ± 23.6 mg/dL. For the same molecule, the ALT [5, 9] was 34.8 ± 16.2 mg/dL, the Fasting blood glucose [5, 9] was 79.0 ± 10.9 mg/dL and the Liver weight [5, 9] was 1.21 ± 0.1 g. The Neutral fat [5, 9] was 103.2 ± 24.7 mg/dL, the Total cholesterol [5, 9] was 122.6 ± 19.8 mg/dL and the “blood glucose level after administration (FIG. 5)” value [5, 10] was “marked increase in the blood glucose level”. The consciousness after administration [5, 10] was “disturbance of consciousness was observed”.
Work on CNC(=O)c1cc(Oc2ccc(NC(=O)Nc3ccc(Cl)c(C(F)(F)F)c3)cc2)ccn1 [Sorafenib, sorafenib] yielded an ALT ([5]; sorafenib 5 mg/kg/day orally) of 35.0 ± 10.3 mg/dL, a Fasting blood glucose ([5]; sorafenib 5 mg/kg/day orally) of 84.8 ± 11.8 mg/dL and a Neutral fat ([5]; sorafenib 5 mg/kg/day orally) of 95.2 ± 35.7 mg/dL. It also gave a Total cholesterol ([5]; sorafenib 5 mg/kg/day orally) of 120.4 ± 17.8 mg/dL.

— US20200138840A1, “PHARMACEUTICAL COMPOSITION AND TUMOR IMMUNOACTIVITY PROMOTER” (SENTAN Pharma inc., priority 2017, published 2020)
